One test concerns Escherichia coli ATCC 26. As to the kind of experiment: Antibacterial activity, agar dilution method (MIC). In kind it is cell-based. Conditions: ATCC26, medium pH 7, read-out: Minimum Inhibitory Concentration. As for the experimental part: (§1) These antibacterial activities were determined by the agar dilution method with the use of a medium (pH 7) comprising 3 g/liter of bactotryptone (manufactured by Difco), 3 g/liter of meat extract, 1 g/liter of yeast extract, 1 g/liter of glucose and 16 g/liter of agar.

Test [1] has as its system Klebsiella pneumoniae ATCC 10031. As to the kind of experiment: Antibacterial activity, agar dilution method (MIC). In kind it is cell-based. Conditions: ATCC10031, medium pH 7, read-out: Minimum Inhibitory Concentration. How it is done: as §1
Test [2] has as its system Staphylococcus aureus ATCC 6538P. The test can be described thus: Antibacterial activity, agar dilution method (MIC). Conditions: ATCC6538P, medium pH 7, read-out: Minimum Inhibitory Concentration. The class given is cell-based. As for the experimental part: as §1
The subject of test [3] is Salmonella choleraesuis ATCC 9992. The test can be described thus: Antibacterial activity, agar dilution method (MIC). The class given is cell-based. Conditions: Salmonella enterica, pH 7, read-out: Minimum Inhibitory Concentration. As for the experimental part:
as §1

The subject of test [4] is Enterococcus hirae ATCC 10541. As to the kind of experiment: Antibacterial activity, agar dilution method (MIC). The settings on record: ATCC10541, medium pH 7, read-out: Minimum Inhibitory Concentration. The class given is cell-based. How it is done:
as §1

The test system of test [5] is Proteus vulgaris ATCC 6897. As to the kind of experiment: Antibacterial activity, agar dilution method (MIC). The class given is cell-based. Conditions: ATCC6897, medium pH 7, read-out: Minimum Inhibitory Concentration. How it is done: as §1
Test [6] concerns Candida albicans ATCC 10231. As to the kind of experiment: Antibacterial activity, agar dilution method (MIC). The class given is cell-based. Conditions: ATCC10231, medium pH 7, read-out: Minimum Inhibitory Concentration. As for the experimental part:
as §1

Test [7] has as its system Bacillus subtilis No. 10707. The test can be described thus: Antibacterial activity, agar dilution method (MIC). In kind it is cell-based. The settings on record: medium pH 7, read-out: Minimum Inhibitory Concentration. How it is done:
as §1

The test system of test [8] is Pseudomonas aeruginosa Bin H No. 1. The test can be described thus: Antibacterial activity, agar dilution method (MIC). The class given is cell-based. The settings on record: medium pH 7, read-out: Minimum Inhibitory Concentration. As for the experimental part:
as §1

Test [9] concerns Shigella sonnei ATCC 9290. As to the kind of experiment: Antibacterial activity, agar dilution method (MIC). The settings on record: ATCC9290, medium pH 7, read-out: Minimum Inhibitory Concentration. The class given is cell-based. How it is done:
as §1

The subject of test [10] is Hela S3 cells (ATCC HTB22). As to the kind of experiment: Growth inhibition on Hela S3 cells. The class given is cell-based. The settings on record: Homo sapiens, 72 hours incubation, Giemsa staining, read-out: IC50 against the cell growth. As for the experimental part: Into each well of a 96-well microtiter plate was pipetted 0.1 ml of a 3.0×10^4 cells/ml suspension of Hela S3 cells (ATCC HTB22) in DEM medium containing 10% of fetal calf serum (manufactured by Nissui, hereinafter referred to as "medium A"). This plate was incubated in a carbon dioxide gas incubator at 37° C. for 20 hours. Then, 0.1 ml of the test compound, which had been appropriately diluted with the medium A, was added to each well followed by incubation in the carbon dioxide gas incubator at 37° C. for additional 72 hours. After having removed the culture supernatant, the residue was washed with physiological saline once and treated with 0.1 ml of methanol for 10 minutes to thereby fix the cells. Next, the cells were stained with 0.1 ml of Giemsa's staining solution [stock solution for Giemsa's staining Merck Art 9204 (manufactured by Merck): physiological saline=1:10] for 5 minutes. After having removed the staining solution, the residue was washed with 0.2 ml of water once. Then, the pigment was extracted with 0.2 ml of 0.1N hydrochloric acid, and the absorbance was measured at 620 nm by the use of a microplate reader. From the result of the measurement, the increased amount of the grown cells was determined. […]

The test system of the next test is sarcoma 180 tumor. As to the kind of experiment: Antitumor activity on sarcoma 180 tumor. The class given is in vivo, male ddY mice. Conditions: for Mean Tumor Volume: once into tail vein on day 1, measured on 7th day after implantation, ddY mice; for Antitumor Activity (T/C): once into tail vein, day 7, mean tumor volume test/control. How it is done: Male ddY mice were used herein, which were grouped into plural groups, each group being comprised of 5 mice. 5×10^6 sarcoma 180 tumor cells were implanted into the subcutaneous tissue in the axillary region of each mouse. On the 1st day after the implantation, a solution of UCH15B dissolved in physiological saline was injected once into the tail vein of each mouse. On the 7th day after the implantation, the mean tumor volume (mm^3) in each mouse was measured. […] Said antitumor activity was calculated according to the following equation.
=[mean tumor volume (mm^3) in mice in test group]/[mean tumor volume (mm^3) in mice in control group (to which was administered physiological saline only)]

Test [11] relates to human ovarian cancer strain A2780 tumor. As to the kind of experiment: Antitumor activity on human ovarian cancer strain A2780. In kind it is in vivo. The settings on record: 0.38 mg/kg, once into tail vein; nude mice (BALB/C-nu/nu); 14 days after injection; [V/V0]/[C/C0]. How it is done:
Nude mice (BALB/C-nu/nu) were used herein, which were grouped into plural groups, each group being comprised of 5 mice. A human ovarian cancer strain A2780 tumor (a piece of 8mm^3) was implanted into the subcutaneous tissue in the abdominal region of each mouse. After the implantation, when the tumor volume in each tumor-carrying mouse reached between 50 and 300 mm^3, a solution of UCH15B in physiological saline was injected once into the tail vein of each mouse (in the test group). Just before the injection of said UCH15B solution, the volume of the tumor (V0) in each mouse was measured. 14 days after the injection thereof, the volume of the tumor (V) therein was measured. Into each mouse in the control group, only physiological saline was injected. Just before the injection of physiological saline, the volume of the tumor (C0) in each mouse was measured. 14 days after the injection thereof, the volume of the tumor (C) therein was measured. The antitumor activity of the test compound, UCH15B was obtained according to the following equation.
Antitumor Activity=[V/V0]/[C/C0 ]
V: tumor volume (mm^3) in test group after the test
V0 : tumor volume (mm^3) in test group before the test
C: tumor volume (mm^3) in control group after the test
C0 : tumor volume (mm^3) in control group before the test

In brackets after ≈: the same amount, converted by molar mass.

For the molecule `N#CC(CC(=O)NC(C=O)C/C=C/CN)NC(=O)c1cc(NC(=O)c2cc(NC(=O)CNC(=N)N)c[nH]2)c[nH]1` (stereo not shown) [UCH15A], the MIC in the test on Escherichia coli ATCC 26 worked out at 0.16 µg/mL (≈ 0.297 µM); in test [1], 0.02 µg/mL (≈ 0.0371 µM); in test [2], 2.6 µg/mL (≈ 4.82 µM); in test [3], 0.16 µg/mL (≈ 0.297 µM); in test [4], 2.6 µg/mL (≈ 4.82 µM); in [5], 0.16 µg/mL (≈ 0.297 µM). The MIC is 10.4 µg/mL (≈ 19.3 µM) in [6], 0.08 µg/mL (≈ 0.148 µM) in test [7], over 50 µg/mL in test [8] and 0.16 µg/mL (≈ 0.297 µM) in test [9]. Also, in test [10], the IC50 was found to be 1200 nM.

Turning to `N#CC(CC(=O)NC(C=O)C/C=C/CN)NC(=O)c1cc(NC(=O)c2cc(NC(=O)CNC(N)=NO)c[nH]2)c[nH]1` (stereo not shown) [UCH15B], the “Mean Tumor Volume” value turned out to be 1528 mm^3 in the test on sarcoma 180 tumor (0.094 mg/kg), 1405 mm^3 with sarcoma 180 tumor (0.19 mg/kg), 1035 mm^3 in the test with sarcoma 180 tumor (0.38 mg/kg) and 522 mm^3 in the test with sarcoma 180 tumor (0.75 mg/kg). The “Antitumor Activity (T/C)” value in the test with sarcoma 180 tumor (0.094 mg/kg) turned out to be 0.65; in the test on sarcoma 180 tumor (0.19 mg/kg) it was 0.60; with sarcoma 180 tumor (0.38 mg/kg), 0.44; in the test on sarcoma 180 tumor (0.75 mg/kg), 0.22; in [11], 0.27. Moreover, the MIC with Escherichia coli ATCC 26 came out at 0.08 µg/mL (≈ 0.144 µM); in [1], 0.04 µg/mL (≈ 0.072 µM); in [2] it was 5.2 µg/mL (≈ 9.36 µM); in [3], 0.33 µg/mL (≈ 0.594 µM); in test [4] it was 10.4 µg/mL (≈ 18.7 µM); in [5] it was 0.33 µg/mL (≈ 0.594 µM). The MIC in test [6] was over 41.7 µg/mL; in [7], 0.33 µg/mL (≈ 0.594 µM); in test [8], over 50 µg/mL; in [9], 0.33 µg/mL (≈ 0.594 µM). Besides, the IC50 in test [10] was found to be 1000 nM.

For the origin of these results see patent publication US5717110A, “UCH15 compounds” (Kyowa Hakko Kogyo Co., Ltd., priority 1995, dated 1998).
